Test results: patent publication US5464551A, “Stabilized phosphate ester-based functional fluid compositions” (Monsanto Company, priority 1993, dated 1995)

Experiments:
[1] = system: Hen; details: in vivo
[2] = in vivo
[3] = in vivo; details: po
[4] = in vivo; remark: listed apart in the source
[5] = system: Mouse; experiment: Genotoxicity: mouse micronucleus; details: in vivo
[6] = system: Bladder
[7] = in vivo; details: topical or ocular
[8] = system: Ames
[9] = in vivo; details: chicken
[10] = sample as named; W samples fresh

Row | SMILES | Hen Neurotox [1] | Skin Irritation [2] | LD50 [3] [mg/kg] | Eye Irritation [4] | Mouse micronucleus [5] | Subchronic Bladder Hyperplasia, level in rats [6] [ppm] | NOEL, subchronic bladder hyperplasia ([6]; rats) [ppm] | Subchronic Bladder Hyperplasia, observation ([6]; rats) | LD50 [7] [mg/kg] | Ames [8] | LD50 [9] [mg/kg] | Independent Lab Cond. [10] [μMHO/cm]
1 | CC(C)COP(=O)(OCC(C)C)OCC(C)C [TIBP, triisobutyl phosphate] | Not neurotoxic | Moderately irritating | > 5000 | Practically non-irritating | negative | > 5000 | 5000 | None observed | > 5000 | negative | > 5000 | –
2 | CCCCOP(=O)(OCCCC)Oc1ccccc1 [DBPP, dibutyl phenyl phosphate] | – | – | – | – | – | – | – | – | – | – | – | 0.008
